The values below come from EP0705258B1, “AZOLYL-CYCLIC AMINE DERIVATIVES WITH IMMUNOMODULATORY ACTIVITY” (Knoll AG, priority 1993, dated 1995).

The assay deals with lymphocyte proliferation (BALB/c responder and mitomycin C treated C57BL/6 stimulator spleen cells). The assay is described as follows: Mixed Lymphocyte Reaction (Test A), one-way MLR, tritiated thymidine incorporation. The class given is cell-based, mice. Particulars: Mus musculus; concentration causing 50% inhibition of lymphocyte proliferation, by linear interpolation; ≤ = active at this concentration but not tested at lower doses. For orientation: Dividing cells build labelled thymidine or BrdU into new DNA.
Usually IC50 stands for the point on the concentration scale where inhibition reaches its midpoint. Low values mean inhibition by little substance, high ones a need for much substance. With `c1ccc(OCCN2CCC(CCn3ccnc3)CC2)cc1` [Example 87, 4-[2-(Imidazol-1-yl)ethyl]-1-(2-phenoxyethyl)piperidine], the IC50 stood at 8000 nM. This counts as single-digit micromolar. With `C(=Cc1ccccc1)CN1CCC(CCn2ccnc2)CC1` [Example 90, 1-Cinnamyl-4-[2-(imidazol-1-yl)ethyl]-piperidine] the figure was 2200 nM. With `O=C(CN1CCC(CCn2ccnc2)CC1)Nc1ccc(C(F)(F)F)cc1` [Example 91, 4-[2-(Imidazol-1-yl)ethyl]piperidino-4'-trifluoromethylacetanilide] the figure was 100 nM; with `CC(c1ccc(Cl)cc1)N1CCC(CCn2ccnc2)CC1` (stereo not shown) [Example 93, 1-[1-(4-chlorophenyl)ethyl]-4-[2-(imidazol-1-yl)-ethyl]piperidine], 1100 nM. Turning to `Cl.Cl.c1ccc(CCCN2CCC(CCn3ccnc3)CC2)cc1` [Example 98, 4-[2-(imidazol-1-yl)ethyl]-1-(3-phenylpropyl)piperidine dihydrochloride], the IC50 was 300 nM. As for `c1ccc(CCCN2CCC(Cn3ccnc3)CC2)cc1` [Example 102, 4-Imidazol-1-ylmethyl-1-(3-phenylpropyl)piperidine], the figure is 5200 nM.

In the case of `CC1CN(CCCc2ccccc2)CCC1CCn1ccnc1` (stereo not shown) [Example 103, 4-[2-(Imidazol-1-yl)ethyl]-3-methyl-1-(3-phenylpropyl)piperidine], the IC50 was 1900 nM. This IC50 lies about 2.7-fold lower than the previous one. With `c1ccc(CCCN2CCC(CCn3ccnc3-c3ccccc3)CC2)cc1` [Example 109, 4-[2-(2-Phenylimidazol-1-yl)ethyl]-1-(3-phenylpropyl)piperidine] the figure was 3600 nM. As for `Cc1nc2ccccc2n1CCC1CCN(CCCc2ccccc2)CC1` [Example 112, 2-Methyl-1-{2-[1-(3-phenylpropyl)piperidin-4-yl]ethyl}benzimidazole], the figure is 3000 nM. With `CC(Cn1ccnc1)C1CCN(CCCc2ccccc2)CC1` (stereo not shown) [Example 113, 4-[2-(Imidazol-1-yl)-1-methylethyl]-1-(3-phenylpropyl)piperidine] the figure was 300 nM; with `c1ccc(CCCN2CCC(CCn3cnc4ccccc43)CC2)cc1` [Example 114, 1-{2-[1-(3-Phenylpropyl)piperidin-4-yl]-ethyl}benzimidazole], 4200 nM. `Cc1nc(Cl)c(Cl)n1CCC1CCN(CCCc2ccccc2)CC1` [Example 115, 4-[2-(4,5-Dichloro-2-methylimidazol-1-yl)ethyl]-1-(3-phenylpropyl)piperidine] registered an IC50 of 1200 nM. In the case of `Cc1ncn(CCC2CCN(CCCc3ccccc3)CC2)c1C` [Example 116, 4-[2-(4,5-Dimethylimidazol-1-yl)ethyl]-1-(3-phenylpropyl)piperidine], the IC50 was 2000 nM.

`Cc1nccn1CCC1CCN(CCCc2ccccc2)CC1` [Example 117, 4-[2-(2-Methylimidazol-1-yl)ethyl]-1-(3-phenylpropyl)piperidine]: the IC50 is 200 nM. `Cc1ccc(CCCN2CCC(CCn3ccnc3)CC2)cc1` [Example 122, 4-[2-(Imidazol-1-yl)ethyl]-1-[3-(4-methylphenyl)propyl]piperidine] showed an IC50 of 2800 nM. As for `Clc1ccc(CCCN2CCC(CCn3ccnc3)CC2)cc1` [Example 123, 1-[3-(4-Chlorophenyl)propyl]-4-[2-(imidazol-1-yl)ethyl]piperidine], the figure is 700 nM; as for `CSc1ccc(CCCN2CCC(CCn3ccnc3)CC2)cc1` [Example 127, 4-[2-(Imidazol-1-yl)ethyl]-1-[3-(4-methylthiophenyl)propyl]piperidine], 1900 nM; as for `c1ccc(CCN2CCC(CCn3ccnc3)CC2)cc1` [Example 128, 4-[2-(Imidazol-1-yl)ethyl]-1-phenethylpiperidine], 2000 nM. For `c1ccc(CCCCN2CCC(CCn3ccnc3)CC2)cc1` [Example 129, 4-[2-(Imidazol-1-yl)ethyl]-1-(4-phenylbutyl)piperidine], it took 2100 nM to reach half-maximal inhibition (IC50). This IC50 and that of the compound before are within 1.5-fold of each other.
